Laboratory results published in US20260224475A1, “MULTI-COMPONENT INTRAVAGINAL RING” (priority 2023, published 2026).
Like-named read-outs stand apart in the source and are kept apart here.

Legend:
HIV-1BaL = assay: MAGI assay, anti-HIV-1BaL activity in TZMbl cells; assay type: cell-based; settings: read-out: EC50 (95% confidence interval)
Description: MAGI assay was performed to test anti-HIV-1BaL activity. […] Virus controls containing HIV-1BaL in saline were incubated under the same conditions. Following incubation, API-HIV-1BaL mixture was diluted 10-fold and added to TZMbl cells. Following 72-hour incubation, the cells were washed and stained with X-gal and fixed. […] Infected cells were counted using CTL instrument.

HSV-2 G = assay: HSV-2 plaque reduction assay; assay type: cell-based; settings: 30 min pre-incubation with HSV-2 G in saline, read-out: EC50 (95% confidence interval)
Description: The HSV-2 plaque reduction assay was performed to test the anti-HSV-2 activity of ZA, CS and LA. […] Virus controls containing HSV-2 in saline were incubated under the same conditions. After incubation all dilutions and controls were diluted 1/10 in DMEM and tittered using the plaque assay. FIG. 12 and Table 10 show the results. […] The data represented the average of two independent experiments. In Table 10, the molar ratio of CS:LA:ZA in ZS-CA-LA is 1:20:100.

C. trachomatis = assay: Bactericidal activity against C. trachomatis (inclusion count in HeLa cells); assay type: cell-based; settings: for inhibition of C. trachomatis infection (in words): absence or presence of 2% VF and 20% SF, 2 hours at room temperature, LA 80 mM
Description: C. trachomatis was incubated with actives ±2% VF and 20% SF for 2 hours at room temperature. The mixtures were serially diluted 1/10 in SPG solution, applied on HeLa cells in triplicate. Images were acquired using the Cytation-5 instrument and the inclusion count was analyzed using the Gen5 software in the Cytation-5. Control conditions included HeLa cells challenged with C. trachomatis in the absence of the actives. (FIG. 15).

human sperm [1] = assay: Sperm motility assay; assay type: cell-based; settings: for Average Motility Reduction: average of nine 3-API checkerboard combinations containing the named API at this dose; for Average CI: average of nine 3-API combinations
Description: Fresh human sperm samples were obtained the day of the experiment. 100 mM stock solutions of each API in saline were prepared in advance. Immediately prior to the experiment, solutions of each API concentration to be tested were prepared via dilution with saline. These include solutions of multiple APIs added together.
The effect of each API on sperm motility and viability was determined using human donors, adding 200 μL of API's diluted in sterile saline to 50 μL of fresh semen. For motility assessments, the incubation mixture was incubated for 5 minutes and then 100 sperm were counted under the microscope by two andrology-trained researchers and classified as either non-motile or motile. If motile, the sperm were further classified according to the nature of their motility—from barely twitching with no forward progression to progressively motile. Each experiment was repeated at least three times on different days using different donors to account for natural variations in sperm properties.
The % motility for each experimental condition was calculated by normalizing the fraction of motile sperm in the experimental groups to the fraction of motile sperm in the saline control treated group, setting 100% to the average fraction of motile sperm from control experiments. For example, the % motility at concentration c would be:
Once % motility data was obtained, the synergy was measured with Compusyn software. See Chou et al., CompuSyn for drug combinations: PC software and user's guide: a computer program for quantitation of synergism and antagonism in drug combinations, and the determination of IC50. ED50 and LD50 values, which is incorporated herein by reference in its entirety. Motility data for individual API concentration as well as all double and triple API solutions was entered into the program and analyzed according to the Chou-Talalay Median Effect Principle.
Next, the synergy between each of the APIs was tested to determine if there were any synergistic effects between compounds which would allow for reduced dosages. Each of the three possible two-compound combinations were tested, followed by the combination of all three APIs. […] Synergy was calculated with Compusyn using the Chou-Talalay Median Effect approach and represented as a CI (Combination Index) value. […] The smaller the CI value for a combination, the greater the degree of synergy.
After the two-API combinations were complete, the full three-way synergy was tested using a 3×3×3 checkerboard style assay to test all 27 permutations of three chosen concentrations for each of the three APIs.
From the resulting data, the estimated effects of each of the individual API were isolated by averaging % reduction in motility and the CI values for each of the API concentrations tested. With this 3×3×3 checkerboard assay, each single concentration was tested against nine permutations of the other two APIs, meaning that each cell in Table 4 represents the average of the nine combinations involving the specified API concentration.
Synergy was calculated utilizing the Chou-Talalay median effect principle and Compusyn software which quantifies synergy as a combination index (CI) for each combination. A CI<1 signifies synergy, a CI>1 signifies antagonism and a CI=1 signifies a purely additive effect.

N. gonorrhoeae = assay: Minimal cidal concentration (MCC); assay type: cell-based; settings: for MCC: 30 minutes exposure, >3 log decrease in CFU considered cidal
G. vaginalis = assay: Minimal cidal concentration (MCC); assay type: cell-based; settings: 30 minutes exposure; >3 log decrease in CFU considered cidal
Ectocervical explants = settings: for Non-toxic concentrations in ectocervix MTT and histology 24 hr: single treatment
Description: Kruskal-Wallis test with Dunn's multiple comparison) (FIG. 22).
In FIG. 23, ectocervical explants were incubated with the selected concentrations of the APIs for 24 hr in the presence or absence of 5% VF. Explants were fixed, paraffin embedded, sectioned and stained with H&E.
Ectocervical explants were exposed to the APIs 24 hr in the presence or absence of 5% VF. Supernatants were collected and analyzed for pro-inflammatory cytokines.

VEC-100 tissue [2] = system: VEC-100 tissue
Description: VEC-100 tissues were incubated with APIs for 24 hr. Tissue viability was analyzed by MTT and LDH assay and TEER measurements were recorded.

human sperm [3] = assay: Sperm-Cervical Mucus Penetration Test (SMPT) in methylcellulose; assay type: cell-based
lactobacillus = assay: Non-cidal concentrations in lactobacillus (MCC 30 min); assay type: cell-based
VEC-100 tissue [4] = assay: VEC-100 tissue, repeated exposure (1 hr daily for 5 days; viability, TEER); assay type: cell-based; settings: for Non-toxic concentrations in VEC-100 model TEER and LDH 5 daily exposures: multiple treatments
[5] = single API, 30 min pre-incubation with virus in saline, 10-fold dilution, 72 h on TZMbl cells
[6] = Dose 1 (CS 2.95, ZA 4.75, LA 10.26 mM)
[7] = Dose 2 (CS 3.94, ZA 6.34, LA 13.70 mM)
[8] = Dose 3 (CS 5.90, ZA 9.51, LA 20.54 mM)

O=S(=O)([O-])[O-].[Cu+2] [CS, copper sulfate]
EC50 (HIV-1BaL; [5]): 0.183 mM
EC50 (HSV-2 G; single API): 0.009 mM
inhibition of C. trachomatis infection (in words) (C. trachomatis): significantly inhibited infection

CC(=O)[O-].CC(=O)[O-].[Zn+2] [ZA, zinc acetate]
Average Motility Reduction (human sperm [1]; [6]): 63.47%
Average CI (human sperm [1]; [6]): 0.48
Average Motility Reduction (human sperm [1]; [7]): 73.77%
Average CI (human sperm [1]; [7]): 0.47
Average Motility Reduction (human sperm [1]; [8]): 80.09%
Average CI (human sperm [1]; [8]): 0.45
EC50 (human sperm [1]; single API (CS/ZA/LA study), saline, 5 min with fresh semen, % motility vs saline control): 19 mM
EC90 (human sperm [1]; single API (CS/ZA/LA study), saline, 5 min with fresh semen, % motility vs saline control, read-out: EC90): 33.2 mM
EC50 (HIV-1BaL; [5]): 1.96 mM
EC50 (HSV-2 G; single API): 0.78 mM
MCC 10% AB Serum (N. gonorrhoeae): 100 mM
MCC 30% AB Serum (N. gonorrhoeae): >100 mM
MCC (N. gonorrhoeae): 100 mM
MCC No Serum (N. gonorrhoeae): 100 mM
MCC (G. vaginalis): > 100 mM
Ectocervix: single exposure (MTT, Histology, CC) 24 h, 5% VF (Ectocervical explants; 100 mM): No Tox
Ectocervix: single exposure (MTT, Histology, CC) 24 h, No VF (Ectocervical explants; 100 mM): No Tox
VEC-100: Single exposure (MTT, TEER and LDH) 24 h, No VF (VEC-100 tissue [2]; 100 mM): No Tox

CC(O)C(=O)O (racemic) [LA, lactic acid]
Average Motility Reduction (human sperm [1]; [6]): 54.75%
Average Motility Reduction (human sperm [1]; [7]): 70.74%
Average Motility Reduction (human sperm [1]; [8]): 91.84%
EC50 (human sperm [1]; Homo sapiens, Sperm, 5 min, single API (CS/ZA/LA study), saline, 5 min with fresh semen, % motility vs saline control): 20.5 mM
EC90 (human sperm [1]; Homo sapiens, Sperm, 5 min, single API (CS/ZA/LA study), saline, 5 min with fresh semen, % motility vs saline control, read-out: EC90): 28.7 mM
EC90 (human sperm [1]; Homo sapiens, Sperm, Table 16, concentration of the named API in the CS + ZL + LA combination (cf. Table 7), read-out: Anti-Sperm concentrations Total motility (EC90)): 21 mM
EC50 (human sperm [1]; Homo sapiens, Sperm, single API (CS/ZL/LA study)): 21 mM
EC90 (human sperm [1]; Homo sapiens, Sperm, single API (CS/ZL/LA study), read-out: EC90): 29 mM
EC90 (human sperm [1]; Homo sapiens, Sperm, single API, read-out: Reduction of Sperm Motility EC90 [95% CI] (concentration to inhibit total sperm motility)): 29 mM
MIC (concentration to inhibit progressive sperm motility) (human sperm [1]; single API): 20 mM
EC90 (human sperm [3]; Homo sapiens, Sperm, 0.5 h, single API, 1% methylcellulose, 30 minutes, read-out: Inhibition of Sperm Mucus Penetration EC90 [95% CI] (Migration of vanguard sperm in methyl cellulose spiked with API)): 5 mM
EC90 (human sperm [3]; Homo sapiens, Sperm, Table 16, concentration of the named API in the CS + ZL + LA combination (cf. Table 7), read-out: Anti-Sperm concentrations Sperm-mucus penetration (EC90)): 1.5 mM
EC50 (HIV-1BaL; TZM-bl): 2.5 mM
EC50 (HSV-2 G; Human alphaherpesvirus 2, single API): 0.16 mM
MCC 10% AB Serum (N. gonorrhoeae): 111 mM
MCC 30% AB Serum (N. gonorrhoeae): 111 mM
MCC (N. gonorrhoeae): 111 mM
MCC No Serum (N. gonorrhoeae): 111 mM
MCC (G. vaginalis): 111 mM
anti-C. trachomatis activity (in words) (C. trachomatis; LA concentrations lower than 80 mM): no activity was observed
inhibition of C. trachomatis infection (in words) (C. trachomatis): significantly inhibited infection
Ectocervix: single exposure (MTT, Histology, CC) 24 h, 5% VF (Ectocervical explants; 111 mM): No Tox
Ectocervix: single exposure (MTT, Histology, CC) 24 h, No VF (Ectocervical explants; 111 mM): No Tox
Ectocervix: single exposure (MTT, Histology, CC) 24 h, 5% VF (Ectocervical explants; 222 mM): No Tox
Ectocervix: single exposure (MTT, Histology, CC) 24 h, No VF (Ectocervical explants; 222 mM): No Tox
Non-toxic concentrations in ectocervix MTT and histology 24 hr (Ectocervical explants): 222 mM
Non-cidal concentrations in lactobacillus MCC 30 min (lactobacillus): 222 mM
VEC-100 single exposure (MTT, TEER and LDH) day 1-5 24 h No VF (VEC-100 tissue [4]; […] mM): No Tox
Non-toxic concentrations in VEC-100 model TEER and LDH 5 daily exposures (VEC-100 tissue [4]): 22 mM
concentration up to which exposure alone did not induce toxicity (VEC-100 tissue [2]; single active, 24 h single exposure, summary of ectocervix and VEC-100 findings): up to 222 mM
Non-toxic concentrations in VEC-100 model TEER and LDH 24 h (VEC-100 tissue [2]; single treatment): 222 mM
Non-toxic concentrations based on rat vaginal irritation study 10 days exposure (rat, in vivo, 10 days): 200 mM

Triton [reference compound]
VEC-100 single exposure (MTT, TEER and LDH) day 1-5 24 h No VF (VEC-100 tissue [4]; control, concentration not given): Tox

CC(O)C(=O)[O-].CC(O)C(=O)[O-].[Zn+2] (stereo not shown) [ZL, zinc lactate]
EC90 (human sperm [1]; Table 16, concentration of the named API in the CS + ZL + LA combination (cf. Table 7), read-out: Anti-Sperm concentrations Total motility (EC90)): 22 mM
EC90 (human sperm [1]; Table 18, concentration of the named API in the CS + ZL + LA combination, read-out: Anti-Sperm concentrations Total motility (EC90)): 22 mM
MIC (concentration to inhibit progressive sperm motility) (human sperm [1]; single API): 30 mM
EC50 (human sperm [1]; single API (CS/ZL/LA study)): 45 mM
EC90 (human sperm [1]; single API (CS/ZL/LA study), read-out: EC90): 94 mM
EC90 (human sperm [1]; single API, read-out: Reduction of Sperm Motility EC90 [95% CI] (concentration to inhibit total sperm motility)): 94 mM
EC90 (human sperm [3]; Table 16, concentration of the named API in the CS + ZL + LA combination (cf. Table 7), read-out: Anti-Sperm concentrations Sperm-mucus penetration (EC90)): 5 mM
EC90 (human sperm [3]; Table 18, concentration of the named API in the CS + ZL + LA combination, read-out: Anti-Sperm concentrations Sperm-mucus penetration (EC90)): 5 mM
EC90 (human sperm [3]; single API, 1% methylcellulose, 30 minutes, read-out: Inhibition of Sperm Mucus Penetration EC90 [95% CI] (Migration of vanguard sperm in methyl cellulose spiked with API)): 13 mM
MCC 10% AB Serum (N. gonorrhoeae): >100 mM
MCC 30% AB Serum (N. gonorrhoeae): >100 mM
MCC No Serum (N. gonorrhoeae): >100 mM
inhibitory activity (in words) (N. gonorrhoeae; ± human serum): not inhibitory
inhibition of C. trachomatis infection (in words) (C. trachomatis): exception
Ectocervix: single exposure (MTT, Histology, CC) 24 h, 5% VF (Ectocervical explants; 25 mM): No Tox
Ectocervix: single exposure (MTT, Histology, CC) 24 h, No VF (Ectocervical explants; 25 mM): No Tox
Ectocervix: single exposure (MTT, Histology, CC) 24 h, 5% VF (Ectocervical explants; 50 mM): No Tox
Ectocervix: single exposure (MTT, Histology, CC) 24 h, No VF (Ectocervical explants; 50 mM): No Tox
Ectocervix: single exposure (MTT, Histology, CC) 24 h, 5% VF (Ectocervical explants; 100 mM): No Tox
Ectocervix: single exposure (MTT, Histology, CC) 24 h, No VF (Ectocervical explants; 100 mM): No Tox
Non-toxic concentrations in ectocervix MTT and histology 24 hr (Ectocervical explants): 100 mM
VEC-100 single exposure (MTT, TEER and LDH) day 1-5 24 h No VF (VEC-100 tissue [4]; 10 mM): No Tox
VEC-100 single exposure (MTT, TEER and LDH) day 1-5 24 h No VF (VEC-100 tissue [4]; 21 mM): No Tox
Non-toxic concentrations in VEC-100 model TEER and LDH 5 daily exposures (VEC-100 tissue [4]): 21 mM
Non-toxic concentrations based on rat vaginal irritation study 10 days exposure (10 days exposure): 50 mM
